Patent publication US7112318B2, “Non-invasive diagnostic imaging technology for mitochondria dysfunction using radiolabeled lipophilic salts” (The Johns Hopkins University, priority 2002, dated 2006)

How the values were obtained:
[1] = Stability in plasma after injection of the agent into mice (column-switch HPLC radiochromatography); assay type: in vivo
Experimental: Samples of mouse plasma were obtained from heparinized whole bloodcollected 5, 15 and 30 min p.i. of the tracer. To eliminate binding to plasma proteins, the plasma was added to solid urea to give a final concentration of 8M urea. The plasma-urea was loaded into a column switch HPLC system (Hilton 2000), in which the plasma passes through a small capture column (Oasis Sorbent, Waters Corp.), which retains lipophilic solutes, while polar species fail to bind and are detected as they pass through a positron detector. After four minutes, the capture column is free of plasma proteins and polar species. Then, the contents of the capture column was swept onto an analytical column (Prodigy ODS-3, Phenomenex) by 40% acetonitrile, 60% triethylamine acetate buffer pH 4.1 at 1 mL/min, where separation of the parent compound and lipophilic metabolites occurs. The effluent from the analytical column also passes through the positron flow detector. The proportion of each species is determined from the area under each chromatographic peak. Results: Radiochemical purity of the 18F-labeled FBnTP was more than 95%. […] FIG. 1 depicts the chromatogram of plasma collected 30 min p.i., and the parental compound incubated for a similar time period (30 min) in buffered saline. Plasma activity and parental compound peaked at same time (˜6 min).

[2] = Stability of fluorination: total bone uptake after i.v. injection; assay type: in vivo; details: mice, 5 and 30 min p.i., compared to mice injected with F-18 only
Experimental: Methods: Mice were injected via the tail vein with 25 μCi of F-18-PhC; 5 and 30 min p.i., the left or right femur bone was removed, and bone radioactivity together with standard (1:100 of injected dose) were counted in a gamma counter. A parallel group of mice was injected with free fluorides (F-18). Three mice of each group were studied at each time point. Radioactivity is represented as percentage of injected dosed (% ID) and total bone uptake was calculated as activity in femur bone×20.

[3] = system: Human lung carcinoma H549 cells; assay: Mitochondria membrane potential (MMP)-dependent cellular uptake with CCCP; assay type: cell-based; details: 30 min
Experimental: The extent of MMP-dependent cellular uptake of F-18-FBnTP was assessed using CCCP, a known protonophore that selectively abolishes the MMP.
Methods: Human lung carcinoma H549 cells ([…]) were incubated with 0.1 μCi/ml F-18-FBnTP for 30 min. Samples of the suspension (1 mL) were transferred to Eppendorf s vials and placed in a 370C bath. Varying concentrations (30, 60, 90, 120 μM) of CCCP were added to the suspension. After 30 min of incubation with CCCP, the Eppendorf vials were centrifuged for 1 min, and activity in pellet and supernatant was immediately counted.

[4] = system: orthotopic NMU mammary tumor; assay: Tracer uptake in NMU mammary tumor versus healthy gland and FCA inflammation; assay type: in vivo; details: NMU-bearing rats, 60 min after i.v., normalized to muscle
Text: The carcinogen nitrosomethyl urea (NMU) induces carcinoma tumors solely in the mammary gland of female rats. Therefore, the orthotopic NMU mammary tumor is an excellent model for evaluating tracer tumor selectivity by contrasting radioactivity accumulating in mammary gland infested with carcinoma cells and healthy mammary gland. Freund Complete Adjuvant (FCA) is a well_studied inflammation agent in rats Induction of FCA inflammation in NMU-bearing rats allows for direct quantitation of tracer capability to differentiate carcinoma from inflammation.
(§1) 0.1 ml of nitrosomethyl urea (NUM) was introduced i.p in female rats (150 g). When tumor reached an approximate size of 1 to 1.5 cm, FCA was injected (0.15 ml) to the hind limb footpad. Uptake assays were carried out 3 days thereafter. F-18-FBnTP (0.25 mCi) was injected via tail vein. Sixty minutes later tumor, inflamed tissue and healthy muscle tissue of the opposite limb (control) were collected on ice, weighed and counted in a gamma counter together with standards.

FCA-induced inflammation = assay: Accumulation in FCA-induced inflammation tissue and healthy muscle; assay type: in vivo; details: rats, 3 days after administration of FCA
Experimental: as §1
The accumulation of the novel F-18-phosphonium cations, F-18-FBnTP and F-18-fluoropropyl triphenyl phosphonium (F-18-FPTP) in comparison with F-18-FDG in FCA-induced inflammation and healthy tissue is presented in Table 2. Induction of inflammation and activity counting were carried out as described above.

[5] = system: human lung carcinoma A549 cells; assay: Detection of response of lung carcinoma tumor to taxeter in vivo; details: A549 tumor in nude mice, 48 hours after i.v. taxeter, 60 min after tracer, normalized to muscle
Experimental: Methods: 2×10^6 human lung carcinoma A549 cells were inoculated s.q. in 12 nude mice. When tumor size reached an approximate size of 5—10 mm, six mice were injected i.v. with taxeter and six mice served as control. Uptake assays were carried out 48 hours thereafter. 25 μCi of F-18-FBnTP were injected i.v., and tumor and muscle tissue was dissected after 60 min.

prostate carcinoma = assay: Tumor selectivity in orthotopic model of prostate carcinoma; assay type: in vivo; details: nude mice, normalized to muscle
Experimental: Methods: 2×10^6 cells were injected, under anesthesia, into the prostate epithelial tissue of nude mice. When tumor reached an approximate size of 5 mm, uptake assays were performed as described above. Tumor selectivity of F-18-FBnTP and F-18-FDG was compared (3 mice in each group)

myocardium [6] = assay: F-18-FBnTP uptake kinetics in the myocardium (dog PET); assay type: in vivo, Mongrel dogs
Experimental: Methods: Mongrel dogs (BW=35 kg) were injected with 3–4 mCi of F-18-FBnTP. Images were acquired on a GE 4096+ scanner (15 slices, 6.5 mm slice thickness). PET scans of increasing duration (15 sec to 20 min) were acquired over a total time of 85 min post-injection. Arterial blood samples (0.5 ml in volume) were collected every few seconds for the first 3 minutes and at gradually increasing intervals (1 to 10 min) for the remaining time of the imaging study. The vascular and myocardial kinetics of F-18-FBnTP was analyzed using the ROI method.

myocardium [7] = assay: F-18-FBnTP myocardial accumulation in heart failure (pacing 210 bpm, 4 weeks, PET); assay type: in vivo, Mongrel dog
Experimental: Pacing of the mongrel dog heart at high rate (210 bpm) for a four weeks is a well-established model of heart failure. The advantage of this model is that the cardiomayopathy solely involve apoptosis without stenosis of coronary artery or related ischemia. Therefore, in this model the affect of apoptosis on FBnTP uptake can be dissected.
Methods: Preparation of dog and data acquisition was performed as described above. Mongrel dog was installed with a pacemaker in the rib case and underwent FBnTP PET scan (presented above). Following the baseline scan, the dog_s heart was paced at a rate of 210 bpm for 4 weeks and a second scan was acquired.
Quantitation of FBnTP in the myocardium was performed using region of interest placed on co-registered myocardial images, whose activity was normalized to the injected dose, before and after pacing. An example for ROI placement is illustrated in FIG. 18.

[8] = Biodistribution in mice 60 min after i.v. injection; details: 60 min after iv. injection
Experimental: Three to five mice were used for the biodistribution study of each tracer. Nonanesthetized animals were injected i.v. with tracer solution (FBnTP or FPTP, TPMP 25 μCi; MIBI 40 μCi; TPP 2 μCi, all in a volume of 0.2 mL saline) then killed by neck dislocation at 60 min after injection. The organs and tissues of interest were removed and counted by a radioactivity counter along with standards (1:1000) (LKB Wallac, 1282 Compugamma CS).

stable after intravenous injection in vivo ([1]; mice, plasma radiochromatograms): more than 30 min
single radio-peak in plasma, share of total activity ([1]; mouse plasma after i.v. injection, no other peak observed): 97%
total bone uptake [2]: minimal bone uptake
total bone uptake ([2]; listed as F-18-PhC): marginal bone uptake
uptake in tumor relative to healthy gland [4]: 4 times
uptake in tumor relative to inflammation ([4]; FCA inflammation 3 days): 3 times
Inf/Control (FCA-induced inflammation): 0.42 ± 0.40
accumulation, Blood (FCA-induced inflammation): 0.10 ± 0.01 % ID/g tissue
accumulation, Control (healthy muscle) (FCA-induced inflammation): 0.76 ± 0.21 % ID/g tissue
accumulation, Inflammation (FCA-induced inflammation): 0.27 ± 0.22 % ID/g tissue
uptake ratio of malignant-to-normal prostate tissue (prostate carcinoma): 2.5
accumulation in the myocardium, time to equilibrium (myocardium [6]; dog PET, 85 min scan): reached equilibrium within a few minutes
washout from the blood pool (myocardium [6]; dog, arterial blood samples): rapid washout
myocardial uptake, Baseline (myocardium [7]; Slices 46–49, ROI1, average activity over 36 to 85 min per slice): *108.62 % of injected dose
biodistribution, blood [8]: 0.02 ± 0.00 % ID/g
biodistribution, brain [8]: 0.07 ± 0.01 % ID/g
biodistribution, heart [8]: 35.39 ± 5.02 % ID/g
biodistribution, kidney [8]: 4.89 ± 0.88 % ID/g
biodistribution, liver [8]: 3.00 ± 1.12 % ID/g
biodistribution, lung [8]: 7.38 ± 1.55 % ID/g
biodistribution, muscle [8]: 4.31 ± 1.30 % ID/g
biodistribution, spleen [8]: 1.79 ± 0.57 % ID/g
SMILES: [18F]c1ccc(C[P+](c2ccccc2)(c2ccccc2)c2ccccc2)cc1 [Example F-18-FBnTP, F-18-fluorobenzyl triphenyl phosphonium]
cellular uptake in the presence of varying concentrations of CCCP ([3]; CCCP 30, 60, 90, 120 μM): dose-dependent decrease
MMP-dependent share of cellular uptake ([3]; CCCP 30-120 μM): 86%
decrease in accumulation in tumor after taxeter, compared to non-treated mice [5]: ~50%
Ratio P/B (myocardium [7]; Slices 36–37, ROI1): 0.62
Ratio P/B (myocardium [7]; Slices 36–37, ROI2): 0.91
Ratio P/B (myocardium [7]; Slices 36–37, ROI3): 0.85
Ratio P/B (myocardium [7]; Slices 46–49, ROI1): 0.56
Ratio P/B (myocardium [7]; Slices 46–49, ROI2): 0.76
Ratio P/B (myocardium [7]; Slices 46–49, ROI3): 0.82
decrease in uptake in the inferior wall after pacing (myocardium [7]; dog, 4-wks pacing at 210 bpm versus baseline): 40–60%
